Converted amounts (≈) assume the structure as drawn.
Key:
P388 = test: Cytotoxicity against mouse P388 cells after 4 days; type: functional; settings: P388, 96 h, read-out: ED50 (the source's name)
L1210 = test: Cytotoxicity against mouse L1210 cells after 4 days; type: functional; settings: L1210, 96 h, read-out: ED50 (the source's name)

Structure (SMILES)	EC50 (P388)	EC50 (L1210)
CC1=CC(=O)CC(C)(C)[C@@]1(O)CC(=O)/C(C)=C/C=C/C(C)=C/C=C/C=C(C)/C=C/C=C(\C)C=C=C1C(C)(C)C[C@H](O)C[C@@]1(C)O [AMAROUCIAXANTHIN A]	150 µg/mL (≈ 244 µM)	50 µg/mL (≈ 81.3 µM)
CC1=CC(=O)CC(C)(C)[C@@]1(O)CC(=O)/C(C)=C/C=C/C(C)=C/C=C/C=C(C)/C=C/C=C(\C)C#CC1=C(C)C[C@@H](O)CC1(C)C [AMAROUCIAXANTHIN B]	300 µg/mL (≈ 503 µM)	100 µg/mL (≈ 168 µM)
CC1=C(C#C/C(C)=C/C=C/C(C)=C/C=C/C=C(C)/C=C/C=C(\C)C(=O)C[C@@]23O[C@]2(C)C[C@@H](O)CC3(C)C)C(C)(C)C[C@H](O)C1 [HALOCYNTHIAXANTHIN]	12.5 µg/mL (≈ 20.9 µM)	25 µg/mL (≈ 41.7 µM)

— ChEMBL document CHEMBL1151660, “Carotenoids of tunicates. III. The structural elucidation of two new marine carotenoids, amarouciaxanthin A and B” (1985)
